Results on eight compounds are retold here after article PMC3677620, “Cytotoxicity and In Vitro Antileishmanial Activity of Antimony (V), Bismuth (V), and Tin (IV) Complexes of Lapachol” (Bioinorganic Chemistry and Applications, 2013).

≈ marks a conversion by molar mass, not a printed value. Where “and” joins values, the source holds several entries; their conditions need not be identical. Identical values can stand only once. Like-named read-outs stand apart in the source and are kept apart here.

One series has as its system HepG2 cells. Put plainly: Cytotoxicity test, MTT method, HepG2 cells. The conditions noted are these: for MLD50: the minimum lethal dose that killed 50% of the cells, HepG2: MTT, 24 h; for MLD50, the minimum lethal dose (Figure 2): hepatoma HepG2 cell, curve of one representative experiment. The protocol:
(§1) Balb/c murine peritoneal macrophages were obtained as described above. Cytotoxicity was determined using the MTT method (3-(4,5-dimethylthiazol-2-yl)-2,5-diphenyl tetrazolium bromide) (Sigma). HepG2 cells were kept in RPMI medium supplemented with 10% FBS, and confluent monolayers were trypsinized, washed in RPMI, and transferred to 96-well microtiter plates (4 × 10^4 cells/well) for 16–18 h. Murine macrophages were used in the concentration 2 × 10^5 cells/well in 96-well microtiter plates. The compounds were serial diluted in different concentrations (10 → 0.16 mg/mL). In both tests, the medium was removed, and the compounds were incubated for 24 h (37°C, 5% CO2). Colorimetric reaction was developed following the incubation with MTT (37°C, 5% CO2, 4 h) and addition of acidified isopropanol. The reaction was read spectrophotometrically (Spectramax M5, Molecular Devices, San Francisco, CA) with a 570 nm filter and a background of 670 nm. Incubations were tested in triplicate in two independent experiments. The minimum dose that killed 50% of the cells (MLD50) was determined, and the values were plotted to generate dose-response curves using Microcal Origin Software (Northampton, MA, USA).
For orientation: Tetrazolium assays rely on reduction of a dye to a coloured formazan, in cell work by metabolically active cells.

The next series deals with murine macrophages. Put plainly: Cytotoxicity test, MTT method, murine peritoneal macrophages. The conditions noted are these: for MLD50: the minimum lethal dose that killed 50% of the cells, macrophages: murine peritoneal macrophages, MTT, 24 h. As for the experimental part: (§2) Animals were kept in the Animal Facility of the Centro de Pesquisas René Rachou/FIOCRUZ in strict accordance to the Guide for the Care and Use of Experimental Animals. The procedures were approved by the Internal Ethics Committee in Animal Experimentation (CEUA) of Fundação Oswaldo Cruz (FIOCRUZ), Brazil (Protocol L-042/08). Mice were euthanized with CO2 in an induction chamber prior to macrophage removal. Balb/c mice were injected intraperitoneally with 2 mL of 3% sodium thioglycollate medium. After 72 h, peritoneal macrophages were removed by washing with cold RPMI 1640 medium and enriched by adherence to round glass coverslips (13 mm) placed in a 4-well culture plate. Cells (2 × 10^5 cells/well) were cultured (37°C, 5% CO2, 18 h) in RPMI supplemented with 10% heat-inactivated FBS (fetal bovine serum) prior to infection with parasites. Macrophages were exposed to stationary phase promastigotes (2 × 10^6/well) at a final ratio of 1 : 10. The plates were incubated at 37°C, 5% CO2, for 5 h in BOD to allow internalization of parasites. Then, the medium was removed for the remaining noninternalized parasites. Negative control included only infected macrophages and medium. Incubations were tested in duplicate in two independent experiments. The substances were serial diluted with RPMI 1640 medium supplemented with 10% FBS at five different concentrations (50 → 3.1 μg/mL). For compounds (3) and (6), the dilution was 10 → 0.016 μg/mL. […] Infected macrophages were exposed daily to the compounds for 3 consecutive days. After this period, coverslips were collected, stained with Panoptic (Laborclin), and subsequently mounted with Entellan (Merck) on glass slides.
as §1, with “The cell lineage HepG2 A16 was derived from a human hepatocellular carcinoma cell line HepG2 (ATCC HB-8065) and obtained from America Type Culture Collection line (ATCC). Balb/c” for “Balb/c”

The test system of series [1] is L. amazonensis. Put plainly: In vitro classic microscopic test, intracellular amastigotes in infected murine peritoneal macrophages. The conditions noted are these: for IC50, half-maximal inhibitory response (Figure 2): intracellular L. amazonensis, curve of one representative experiment; for IC50: the inhibitory concentration that killed 50% of the L. amazonensis: intracellular amastigotes in Balb/c peritoneal macrophages, 3 days exposure, based on percentage of infected macrophages; for IC50: Leishmania amazonensis, Peritoneal macrophage, 72 h. The class given is cell-based, Leishmania amazonensis (IFLA/BR/1967/PH8). As for the experimental part:
The World Health Organization (WHO) reference strain L. amazonensis (IFLA/BR/1967/PH8) was used and typed as previously described. Promastigote forms were grown at 25°C in M199 medium (Sigma) supplemented with 10% heat-inactivated fetal calf serum (Cultilab), 40 mmol/L HEPES (Amersham), 0.1 mmol/L adenine (Sigma), 0.0005% hemin (Sigma), 0.0002% biotin (Sigma), 50 units/mL penicillin, and […] streptomycin (Invitrogen).
as §2
The in vitro classic microscopic test enables direct counting to determine the percentage of infected cells and/or the number of amastigotes. Here, the IC50 values were calculated based on the percentage of infected macrophages.

A further series has as its system L. braziliensis. Also noted: method as in PMID 15654435. The conditions noted are these: cited from earlier work.
The subject of series [2] is L. amazonensis. Also noted: method as in PMID 15654435. The conditions noted are these: strain MHOM/BR/77/LTB0016 ref 5; cited from earlier work.

In the case of `[Cl][Bi]([Cl])([c]1ccccc1)([c]1ccccc1)[c]1ccccc1` [(4), Triphenylbismuth dichloride], in the series on HepG2 cells, the “MLD50: the minimum lethal dose that killed 50% of the cells, HepG2” value turned out to be 183.75 ± 4.77 µg/mL and the “MLD50, the minimum lethal dose (Figure 2)” value (“MLD50 … (Figure 2)” below) stood at 187.1 µg/mL. Also, the “MLD50: the minimum lethal dose that killed 50% of the cells, macrophages” value in the series on murine macrophages came out at 25.15 ± 0.49 µg/mL. For the same compound, in the series on L. amazonensis [1], the “IC50, half-maximal inhibitory response (Figure 2)” value turned out to be 5.51 mg/L and the “IC50: the inhibitory concentration that killed 50% of the L. amazonensis” value is 5.40 ± 0.16 mg/L.

Consider `[Cl][Sb]([Cl])([c]1ccccc1)([c]1ccccc1)[c]1ccccc1` [(5), triphenylantimony dichloride], for which the “MLD50: the minimum lethal dose that killed 50% of the cells, HepG2” value in the series on HepG2 cells turned out to be 157.46 ± 37.13 µg/mL. For the same compound, in the series on murine macrophages, the “MLD50: the minimum lethal dose that killed 50% of the cells, macrophages” value amounted to 30.75 ± 6.01 µg/mL. Besides, in the series on L. amazonensis [1], the “IC50: the inhibitory concentration that killed 50% of the L. amazonensis” value was determined as 11.61 ± 7.85 mg/L.

Consider `[Cl][Sn]([c]1ccccc1)([c]1ccccc1)[c]1ccccc1` [(6), triphenyltin chloride], for which, in the series with HepG2 cells, the “MLD50: the minimum lethal dose that killed 50% of the cells, HepG2” value amounted to 12.04 ± 8.42 µg/mL and the “MLD50 … (Figure 2)” value was determined as 18 µg/mL. For the same compound, the “MLD50: the minimum lethal dose that killed 50% of the cells, macrophages” value with murine macrophages turned out to be 0.73 ± 0.13 µg/mL. In addition, in the series with L. amazonensis [1], the “IC50, half-maximal inhibitory response (Figure 2)” value came to 0.18 mg/L and the “IC50: the inhibitory concentration that killed 50% of the L. amazonensis” value was 0.10 ± 0.11 mg/L.

With `CC(C)=CCC1=C(O)C(=O)c2ccccc2C1=O` [(7), 2-hydroxy-3-(3′-methyl-2-butenyl)-1,4-naphthoquinone], in the series on L. braziliensis, the “IC50 observed for L. braziliensis” value is 11.9 ± 6.9 mg/L. The “MLD50: the minimum lethal dose that killed 50% of the cells, HepG2” value in the series on HepG2 cells came to 201.77 ± 5.32 µg/mL. Also, the “SI: selective index, HepG2” value in the series on HepG2 cells (MLD50/IC50 ratio, HepG2 cells versus L. amazonensis) is given as 13.03. For the same compound, the “SI: selective index, macrophages” value with murine macrophages (MLD50/IC50 ratio, murine macrophages versus L. amazonensis) stood at 11.92. Also, in the series with murine macrophages, the “MLD50: the minimum lethal dose that killed 50% of the cells, macrophages” value came out at 184.65 ± 6.58 µg/mL. Moreover, in the series on L. amazonensis [1] (read-out: IC50: the inhibitory concentration that killed 50% of the L. amazonensis, intracellular amastigotes in Balb/c peritoneal macrophages, 3 days exposure, based on percentage of infected macrophages), the IC50 is greater than 10 mg/L. The “IC50: the inhibitory concentration that killed 50% of the L. amazonensis” value with L. amazonensis [1] was 15.48 ± 5.23 mg/L. The “IC50 against L. amazonensis, previous studies” value with L. amazonensis [2] was 5.2 ± 0.70 mg/L (≈ 21.5 µM).

Consider `C[C@@H]1[C@H](O)[C@@H](C)/C=C/C=C/C=C/C=C/C=C/C=C/C=C/[C@H](O[C@@H]2O[C@H](C)[C@@H](O)[C@H](N)[C@@H]2O)C[C@@H]2O[C@](O)(C[C@@H](O)C[C@@H](O)[C@H](O)CC[C@@H](O)C[C@@H](O)CC(=O)O[C@H]1C)C[C@H](O)[C@H]2C(=O)O` [Amphotericin B], for which, in the series on HepG2 cells, the “MLD50: the minimum lethal dose that killed 50% of the cells, HepG2” value was 644.59 ± 126.57 µg/mL. In addition, the “MLD50: the minimum lethal dose that killed 50% of the cells, macrophages” value with murine macrophages amounted to 179.95 ± 8.84 µg/mL. The IC50 in the series with L. amazonensis [1] (read-out: IC50: the inhibitory concentration that killed 50% of the L. amazonensis) was found to be 0.73 ± 0.6 mg/L (≈ 0.79 µM).

As for (Lp)(Ph3Bi)O0.5 [(1)], in the series with HepG2 cells, the “MLD50: the minimum lethal dose that killed 50% of the cells, HepG2” value amounted to 58.38 ± 8.47 µg/mL. In the series with murine macrophages, the “MLD50: the minimum lethal dose that killed 50% of the cells, macrophages” value was 32.4 ± 8.20 µg/mL.

Regarding (Lp)(Ph3Sb)OH [(2)], in the series on HepG2 cells, the “MLD50: the minimum lethal dose that killed 50% of the cells, HepG2” value came out at 325.22 ± 89.40 µg/mL. In addition, the “MLD50: the minimum lethal dose that killed 50% of the cells, macrophages” value in the series on murine macrophages came to 130.65 ± 40.52 µg/mL. Moreover, in the series on L. amazonensis [1], the “IC50: the inhibitory concentration that killed 50% of the L. amazonensis” value is > 10 mg/L and 18.27 ± 5.58 mg/L.

In the case of (Lp)(Ph3Sn) [(3)], in the series on HepG2 cells, the “MLD50: the minimum lethal dose that killed 50% of the cells, HepG2” value was 12.01 ± 0.17 µg/mL and the “MLD50 … (Figure 2)” value came out at 11.9 µg/mL. Besides, the “MLD50: the minimum lethal dose that killed 50% of the cells, macrophages” value with murine macrophages is 1.6 ± 0.57 µg/mL. Moreover, in the series on L. amazonensis [1], the “IC50, half-maximal inhibitory response (Figure 2)” value was 0.15 mg/L and the “IC50: the inhibitory concentration that killed 50% of the L. amazonensis” value is 0.17 ± 0.03 mg/L.
